Data on one compound can be found in US20180296531A1, “STIMULATION OF 11B-HSD2 EXPRESSION TO IMPROVE HORMONAL THERAPY OF STEROID-DEPENDENT DISEASE” (THE CLEVELAND CLINIC FOUNDATION, priority 2015, published 2018).

The test system of experiment [1] is LAPC4 cells. The experiment in a line: Cell viability assay (CellTiter-Glo). In kind it is cell-based, human. On the procedure: LAPC4 cells or the long-term Enz treated LAPC4 cells were plated in triplicate in 96 well plates coated with poly-DL-ornithine and incubated overnight, then treated with Enz and assayed in triplicate at the time points indicated using CellTiter-Glo (Promega). Viability is normalized to day 0.
(In general: Cellular ATP, detected with luciferase, serves as a proxy for viable cell number.)

Experiment [2] concerns Erlin-2. Description: Immunoblot of Erlin-2 in LAPC4 cells and human prostate tissues. In kind it is cell-based. The procedure:
(§1) For protein analysis, immunoblots were performed as described previously. Li et al., J Clin Endocrinol Metab 98, E1189-1197 (2013). Briefly, total cellular protein was extracted with ice cold RIPA lysis buffer (Sigma-Aldrich) containing protease inhibitors (Roche). 30-50 μg protein was separated by 8% SDS-PAGE gel and then transferred to a nitrocellulose membrane (Millipore). After incubating with the anti-11β-HSD2 antibody (Santa Cruz; 1:3000), anti-11β-HSD1 antibody (Santa Cruz; 1:1000), GR antibody (BD Biosciences; 1:1000), anti-Erlin-2 antibody (Cell Signaling Technology: 1:1000) or anti-AMFR antibody (Proteintech; 1:1000) overnight at 4° C., the appropriate secondary antibody was incubated for 1 hour at room temperature. The chemiluminescent detection system (Thermo Scientific) was used to detect the bands with peroxidase activity. An anti-β-actin antibody (Sigma-Aldrich; 1:5000) was used as a control for sample loading.
Seven fresh prostate tissue cores (60-80 mg) from Patients #5-#11 were obtained from the peripheral zone of radical prostatectomy specimens at Cleveland Clinic, confirmed to have tumor in or in close proximity to cores by an expert prostate cancer pathologist, minced and aliquoted to two parts. One was treated with 10 nM DHEA plus vehicle, and the other was treated with 10 nM DHEA plus 10 μM Enz. […]
On the technique in general: Immunoblotting shows a protein as a band on a membrane.

For experiment [3], the system named is LAPC4 human prostate cancer cell line. Description: Cell line cortisol metabolism: conversion of [3H]-cortisol to cortisone, HPLC.
For experiment [4], the system named is AMFR. The experiment in a line: Immunoblot of AMFR. In kind it is cell-based, human. Conditions: enzalutamide treatment, LAPC4 cells and patient tissues. The procedure:
as §1

The subject of experiment [5] is LAPC4 and VCaP CRPC xenografts. The experiment in a line: Mouse xenograft studies: tumor growth and progression-free survival. In kind it is in vivo. The procedure: All mouse studies were performed under a protocol approved by the Institutional Animal Care and Use Committee (IACUC) of the Cleveland Clinic Lerner Research Institute. All NSG male mice (6-8 weeks old) were purchased from the Jackson Laboratory and the number of mice used in this study was based on previously published mouse xenograft studies by our lab that determined effects of steroid pathway inhibition/augmentation on xenograft growth. Mice were surgically orchiectomized and implanted with DHEA pellets to mimic human adrenal DHEA production in patients with CRPC. 1 week later, mice were prepared for cell injections.
For the evaluation of the 11β-HSD2 role in reversing enzalutamide resistance, either 10^7 vector control or 10^7 11β-HSD2 overexpressing LAPC4 or VCaP cells (100 μl in 50% matrigel and 50% growth media) were subcutaneously injected into mice. When tumors reached 100 or 150 mm^3 (length×width×height×0.52), for LAPC4 and VCaP xenografts, respectively, the mice were arbitrarily divided into 2 groups each for vector and 11β-HSD2 overexpressing cells: Enz diet 62.5 mg/kg and or chow alone groups. Tran et al., Science 324, 787-790 (2009). Based on the daily chow consumption, approximately 0.3125 mg Enz was consumed per mouse per day. Enz in chow and chow alone were obtained from Medivation. Tumor volume was measured every other day, and progression-free survival was assessed as time to 3-fold (LAPC4) or 1.5-fold (VCaP) increase in tumor volume (from 100 or 150 mm^3) from the time Enz or chow alone was initiated. The number of mice in the LAPC4 Vector/Ctrl, Vector/Enz, 11β-HSD2/Ctrl and 11β-HSD2/Enz groups were 9, 9, 10, and 11, respectively. The number of mice in the VCaP Vector/Ctrl, Vector/Enz, 11β-HSD2/Ctrl and 11β-HSD2/Enz groups were 6, 6, 5, and 8, respectively. Numbers of mice in each treatment group were determined by those that survived surgical procedures and had reached a tumor volume to initiate treatment.
For evaluation of the role of AMFR in reversing enzalutamide resistance, either 10^7 control or 10^7 AMFR knockdown LAPC4 cells (100 μl in 50% matrigel and 50% growth media) were subcutaneously injected into mice. The remaining procedures were performed as described above. The number of mice in the LAPC4 shCtrl/Enz and shAMFR/Enz groups were 6, and 10, respectively. Protein levels of 11β-HSD2 in the shCtrl and control or shAMFR LAPC4 xenografts were analyzed by immunoblot. Briefly, ˜40-50 mg xenograft tissue was minced into pieces and then added into soft tissue homogenizing CK14 tubes (Betin Technologies) with 150 μl RIPA buffer containing protease inhibitors. Xenograft tissues were homogenized with a homogenizer (Minilys, Betin Technologies) 6 times (40 seconds each time) at the highest speed. Tubes were incubated on the ice for 5-10 minutes between each homogenization to cool lysates. The lysates were then centrifuged for 30 minutes at 15,000×g and the supernatants were used for immunoblot analysis.

Experiment [6] concerns AR-regulated transcripts. The experiment in a line: qPCR of AR-regulated transcripts. Type of experiment: cell-based, human. The following applies: LAPC4, 24 hours. The procedure:
LAPC4 cells were treated with Enz for 36 days and then seeded into 12 well plates coated with poly-DL-ornithine at 50% confluence. After incubation overnight, the cells were transfected with 11β-HSD2-FLAG plasmid for 48 hours by using the TranslT®-2020 Transfection Reagent (Mirus) according to the protocol provided by the manufacturer, then maintained in phenol-red-free medium with 5% Charcoal:Dextran-stripped FBS for 48 hours before being treated with the indicated drugs. Total RNA was extracted with a GenElute Mammalian Total RNA miniprep kit (Sigma-Aldrich) and 1 μg RNA was reverse-transcribed to cDNA with the iScript cDNA Synthesis Kit (Bio-Rad). An ABI 7500 Real-Time PCR machine (Applied Biosystems) was used to perform the qPCR analysis, using iTaq Fast SYBR Green Supermix with ROX (Bio-Rad) in 96-well plates at a final reaction volume of 10 μl. The qPCR analysis was carried out in triplicate with suitable primers. Each mRNA transcript was quantitated by normalizing the sample values to RPLP0 and to vehicle treated cells (for steroid treated cells). All gene expression studies were repeated in independent experiments.
For orientation: Quantitative PCR measures a nucleic acid by following its amplification.

Setting [7] is: LAPC4 xenografts with forced 11β-HSD2 expression, enzalutamide in chow.
The mark [8] stands for this setting: enzalutamide-treated LAPC4 xenografts with stable AMFR knockdown.

In the case of `CNC(=O)c1ccc(N2C(=S)N(c3ccc(C#N)c(C(F)(F)F)c3)C(=O)C2(C)C)cc1F` [enzalutamide], the “cell growth / viability” value in experiment [1] (LAPC4, after sustained (long-term) enzalutamide treatment) was “Growth recovers”. The cell viability result in experiment [1] (LAPC4 in vitro, short-term treatment) was “suppresses LAPC4 viability”. For the same compound, the Erlin-2 expression entry in experiment [2] (LAPC4 cells) was “consistently up-regulated”. Moreover, in experiment [2] (human prostate tissues treated with enzalutamide), the “patient tissues with Erlin-2 up-regulation” value is given as 8 of 11. Further, the “cortisol levels / conversion of [3H]-cortisol to cortisone” value in experiment [3] (long enzalutamide exposure (36 days), LAPC4, cells and media) was “sustains cortisol levels by retarding conversion to cortisone in cells and media”. Also, the cortisol metabolism result in experiment [3] (short term Enz treatment (24 hours), LAPC4) is reported as “does not affect cortisol metabolism”. The AMFR expression result in experiment [4] is reported as “did not consistently increase AMFR expression”. Further, the xenograft tumor growth result was “growth of Vector xenografts through enzalutamide therapy” in experiment [5] (LAPC4 Vector xenografts, orchiectomized mice with DHEA, enzalutamide in chow); “significantly reversed enzalutamide-resistant growth” in experiment [5] (setting [7]); “suppressed xenograft growth” in experiment [5] (setting [8]). Besides, the progression-free survival result in experiment [5] (setting [7]) and in experiment [5] (setting [8]) was “prolonged progression-free survival” each time. In addition, the “sensitivity of xenograft to treatment” value in experiment [5] (VCaP xenografts with 11β-HSD2 expression) was “Reinstatement of sensitivity to enzalutamide treatment”. The “expression of AR-regulated genes” value in experiment [6] was “suppression of AR-regulated genes”.
